Assay results as given in patent US11116731B2, “Hydrogen sulfide and/or nitrite in the treatment and prevention of atrial fibrillation” (Board of Supervisors of Louisiana State University and …, priority 2017, dated 2021).

Tested on: CSE knockout mice
Experiment: Inducible persistent AF (AF lasting more than 90 seconds after induction) in CSE knockout mice
Assay type: in vivo
Conditions: for risk of inducible persistent AF: 200 ug/kg retro-orbitally (i.e. I.V.) for three days
Source text: Homocysteine induced reactive oxygen species reduces the ability of eNOS to properly function in generating nitric oxide (NO).
FIGS. 11 to 12B show mouse Mouse Electrophysiology and AF induction in mice and persistent AF and short run or non-persistent AF.

SMILES	persistent AF (FIGS. 26A, 26B, 34A to 35B) (female CSE KO mice)	AF (electro cardio rhythms, FIGS. 25A and 25B) (female CSE KO mice, nitrite treated vs PBS)	incidence of inducible persistent AF (female CSE knockout mice, 165 ug/kg intraperitoneal for 3 days)	risk of inducible persistent AF (CSE knock out male mice)	risk of inducible persistent AF (female CSE knock out mice)
[N]=O [NO, nitric oxide]	Reduced	–	–	–	–
O=NO [sodium nitrite]	dramatically reduces	reduced	decrease	–	–
C=CCSSSCC=C [DATS, diallyl trisulfide]	–	–	–	reduced to near wild type levels	no noticeable risk reduction
